Numbered stars: 1 amine (or outer) side, 2 acyl side, 3 side chain; on linkers, the order of the positions; unused ones are H or OH. Square brackets hold non-standard residues; d marks the D form. Peptide text beside a SMILES is read from it. * marks the point of attachment. X14 = NCC(=O)N[C@@H]1C[C@@H](C(=O)[*:2])N([*:1])C1; Phe(3,4-Cl2) = N[C@@H](Cc1ccc(Cl)c(Cl)c1)C(=O)O; Phe(3-Cl) = N[C@@H](Cc1cccc(Cl)c1)C(=O)O; Phe(4-Br) = N[C@@H](Cc1ccc(Br)cc1)C(=O)O; Pro(4R-NH2) = N[C@H]1CN[C@H](C(=O)O)C1; X2 = O=C([C@H]1CCCN([*:1])C1)[*:2]; Hyp = O=C(O)[C@@H]1C[C@@H](O)CN1; NHcycloheptyl = C1CCCC(N*)CC1; NMeL = CN[C@@H](CC(C)C)C(=O)O; Octanoyl = CCCCCCCC(=O)*; Api = NC1(C(=O)O)CCNCC1
What follows are compounds tested against T1, NPR-B (Homo sapiens, UniProt P20594) (assay: NPR-B induced production of cyclic GMP in human glaucoma trabecular meshwork cells (GTM-3)). Settings: group by EC50 and Emax (CNP = 100%); Table 4; read-out: Activity (group), NPR-B activation assayed with GTM-3 cells.
T1 construct: a functional assay using endogenously NPR-B expressing GTM-3 cells; endogenous in cells; host or cells: GTM-3 (human glaucoma trabecular meshwork cells)
T1 sequence (P20594 23-1047): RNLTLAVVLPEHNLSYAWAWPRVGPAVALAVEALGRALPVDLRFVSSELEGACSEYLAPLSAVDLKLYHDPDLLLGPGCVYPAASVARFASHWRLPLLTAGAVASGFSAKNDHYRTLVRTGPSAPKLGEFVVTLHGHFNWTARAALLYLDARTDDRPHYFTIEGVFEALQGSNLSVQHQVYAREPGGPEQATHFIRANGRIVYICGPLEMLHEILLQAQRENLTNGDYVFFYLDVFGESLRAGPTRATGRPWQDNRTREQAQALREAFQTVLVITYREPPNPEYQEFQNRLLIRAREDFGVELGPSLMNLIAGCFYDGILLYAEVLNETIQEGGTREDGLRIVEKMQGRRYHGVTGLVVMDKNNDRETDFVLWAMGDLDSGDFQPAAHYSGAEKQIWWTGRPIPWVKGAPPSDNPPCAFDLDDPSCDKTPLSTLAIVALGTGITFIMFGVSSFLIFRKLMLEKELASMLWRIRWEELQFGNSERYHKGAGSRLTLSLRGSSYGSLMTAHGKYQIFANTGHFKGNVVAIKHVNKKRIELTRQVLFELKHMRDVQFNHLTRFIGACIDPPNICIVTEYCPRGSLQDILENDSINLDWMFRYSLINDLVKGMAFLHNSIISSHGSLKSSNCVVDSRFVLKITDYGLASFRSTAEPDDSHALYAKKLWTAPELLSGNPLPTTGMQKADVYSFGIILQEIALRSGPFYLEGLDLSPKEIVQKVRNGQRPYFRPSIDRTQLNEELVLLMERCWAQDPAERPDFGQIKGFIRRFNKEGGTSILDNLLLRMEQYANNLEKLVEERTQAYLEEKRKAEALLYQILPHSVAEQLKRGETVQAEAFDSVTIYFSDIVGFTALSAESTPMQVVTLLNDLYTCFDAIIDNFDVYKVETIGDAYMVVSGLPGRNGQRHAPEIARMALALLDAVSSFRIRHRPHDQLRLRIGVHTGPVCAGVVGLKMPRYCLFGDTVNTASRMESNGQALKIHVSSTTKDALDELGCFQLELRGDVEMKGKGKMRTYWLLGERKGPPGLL
Assay type: cell-based

Row | SMILES | EC50 [nM]
1 | CCCCCCCC(=O)N1CCC[C@H](C(=O)N[C@@H](Cc2ccccc2)C(=O)N[C@H](CC(C)C)C(=O)N[C@@H](CC(C)C)C(=O)N2C[C@H](O)C[C@H]2C(=O)N(C)[C@@H](CC(C)C)C(=O)N[C@H](C(=O)N[C@@H](CCCNC(=N)N)C(=O)N[C@H](C(N)=O)[C@@H](C)CC)[C@@H](C)O)C1 [JAL-1932, Occ-Sni-Phe-leu-Leu-Hyp-Nml-Thr-Arg-Ile-NH2] (HELM PEPTIDE1{[CCCCCCCC(=O)[*:2]].[O=C([C@H]1CCCN([*:1])C1)[*:2]].F.[dL].L.[Hyp].[meL].T.R.I.[am]}$$$$V2.0) | < 1000
2 | CCCCCCCC(=O)N1CCC[C@H](C(=O)N[C@@H](Cc2ccc(Cl)c(Cl)c2)C(=O)N[C@H](CC(C)C)C(=O)N[C@@H](CC(C)C)C(=O)N2C[C@H](O)C[C@H]2C(=O)N(C)[C@@H](CC(C)C)C(=O)N[C@@H](CC(=O)O)C(=O)N[C@@H](CCCNC(=N)N)C(=O)N[C@H](C(N)=O)[C@@H](C)CC)C1 [JAL-1496, Occ-Sni-Eaa-leu-Leu-Hyp-Nml-Asp-Arg-Ile-NH2] (Octanoyl-[X2][Phe(3,4-Cl2)][dL]L[Hyp][NMeL]DRI-NH2) | < 1000
3 | CCCCCCCC(=O)N1CCC[C@H](C(=O)N[C@@H](Cc2cccc(Cl)c2)C(=O)N[C@H](CC(C)C)C(=O)N[C@@H](CC(C)C)C(=O)N2C[C@H](O)C[C@H]2C(=O)N(C)[C@@H](CC(C)C)C(=O)N[C@@H](CC(=O)O)C(=O)N[C@@H](CCCNC(=N)N)C(=O)N[C@H](C(N)=O)[C@@H](C)CC)C1 [JAL-1618, Occ-Sni-Mcf-leu-Leu-Hyp-Nml-Asp-Arg-Ile-NH2] (Octanoyl-[X2][Phe(3-Cl)][dL]L[Hyp][NMeL]DRI-NH2) | < 1000
4 | CCCCCCCC(=O)N1CCC[C@H](C(=O)N[C@@H](Cc2ccc(Br)cc2)C(=O)N[C@H](CC(C)C)C(=O)N[C@@H](CC(C)C)C(=O)N2C[C@H](O)C[C@H]2C(=O)N(C)[C@@H](CC(C)C)C(=O)N[C@@H](CC(=O)O)C(=O)N[C@@H](CCCNC(=N)N)C(=O)N[C@H](C(N)=O)[C@@H](C)CC)C1 [JAL-1619, Occ-Sni-Pbf-leu-Leu-Hyp-Nml-Asp-Arg-Ile-NH2] (Octanoyl-[X2][Phe(4-Br)][dL]L[Hyp][NMeL]DRI-NH2) | < 1000
5 | CCCCCCCC(=O)N1CCC[C@H](C(=O)N[C@@H](Cc2ccccc2)C(=O)NC2(C(=O)N[C@@H](CC(C)C)C(=O)N3C[C@H](N)C[C@H]3C(=O)N(C)[C@@H](CC(C)C)C(=O)N[C@@H](CC(=O)O)C(=O)N3CCC[C@H]3C(=O)NC3CCCCCC3)CCNCC2)C1 [JAL-1602, Occ-Sni-Phe-Apc-Leu-Tap-Nml-Asp-Pro-Che] (Octanoyl-[X2]F[Api]L[Pro(4R-NH2)][NMeL]DP-NHcycloheptyl) | < 1000
6 | CCCCCCCC(=O)N1CCC[C@H](C(=O)N[C@@H](Cc2ccccc2)C(=O)N[C@H](CC(C)C)C(=O)N[C@@H](CC(C)C)C(=O)N2C[C@H](NC(=O)CN)C[C@H]2C(=O)N(C)[C@@H](CC(C)C)C(=O)N[C@@H](CC(=O)O)C(=O)N[C@@H](CCCNC(=N)N)C(=O)N[C@H](C(N)=O)[C@@H](C)CC)C1 [JAL-1322, Occ-Sni-Phe-leu-Leu-Tap(G)-Nml-Asp-Arg-Ile-NH2] (Octanoyl-[X2]F[dL]L[X14][NMeL]DRI-NH2) | < 1000

Other lines, results leading:

Row | EC50 [nM] | SMILES
7 | < 1000 | CCCCCCCCN1CCC[C@H](C(=O)N[C@@H](Cc2ccccc2)C(=O)N[C@H](CC(C)C)C(=O)N[C@@H](CC(C)C)C(=O)N2C[C@H](O)C[C@H]2C(=O)N(C)[C@@H](CC(C)C)C(=O)N[C@@H](CC(=O)O)C(=O)N[C@@H](CCCNC(=N)N)C(=O)N[C@H](C(N)=O)[C@@H](C)CC)C1 [JAL-1302, Oct-Sni-Phe-leu-Leu-Hyp-Nml-Asp-Arg-Ile-NH2] (HELM PEPTIDE1{[CCCCCCCCN1CCC[C@H](C(=O)[*:2])C1].F.[dL].L.[Hyp].[meL].D.R.I.[am]}$$$$V2.0)
8 | < 1000 | CCCCCCCC(=O)N[C@H](C)C(=O)N[C@@H](Cc1ccccc1)C(=O)N[C@H](CO)C(=O)N[C@@H](CC(C)C)C(=O)N1C[C@H](O)C[C@H]1C(=O)N(C)[C@@H](CC(C)C)C(=O)N[C@@H](CC(=O)O)C(=O)N[C@@H](CCCNC(=N)N)C(=O)N[C@H](C(N)=O)[C@@H](C)CC [JAL-1252, Occ-ala-Phe-ser-Leu-Hyp-Nml-Asp-Arg-Ile-NH2] (HELM PEPTIDE1{[CCCCCCCC(=O)[*:2]].[dA].F.[dS].L.[Hyp].[meL].D.R.I.[am]}$$$$V2.0)
9 | < 1000 | CCCCCCCC(=O)N[C@H](C)C(=O)N(C)[C@@H](Cc1ccccc1)C(=O)N[C@H](CC(C)C)C(=O)N[C@@H](CC(C)C)C(=O)N1C[C@H](O)C[C@H]1C(=O)N(C)[C@@H](CC(C)C)C(=O)N[C@@H](CC(=O)O)C(=O)N[C@@H](CCCNC(=N)N)C(=O)N[C@H](C(N)=O)[C@@H](C)CC [JAL-1267, Occ-ala-Nmf-leu-Leu-Hyp-Nml-Asp-Arg-Ile-NH2] (HELM PEPTIDE1{[CCCCCCCC(=O)[*:2]].[dA].[meF].[dL].L.[Hyp].[meL].D.R.I.[am]}$$$$V2.0)
10 | < 1000 | CCCCCCCC(=O)N[C@H](C)C(=O)N[C@@H](Cc1ccccc1)C(=O)N[C@H](CCCNC(=N)N)C(=O)N[C@@H](CC(C)C)C(=O)N1C[C@H](O)C[C@H]1C(=O)N(C)[C@@H](CC(C)C)C(=O)N[C@@H](CC(=O)O)C(=O)N[C@@H](CCCNC(=N)N)C(=O)N[C@H](C(N)=O)C(C)(C)C [JAL-1305, Occ-ala-Phe-arg-Leu-Hyp-Nml-Asp-Arg-Tbg-NH2] (HELM PEPTIDE1{[CCCCCCCC(=O)[*:2]].[dA].F.[dR].L.[Hyp].[meL].D.R.[CC(C)(C)[C@H](N[*:1])C(=O)[*:2]].[am]}$$$$V2.0)
11 | < 1000 | CCCCCCCC(=O)N[C@H](C)C(=O)N[C@@H](Cc1ccccc1)C(=O)NC1(C(=O)N[C@@H](CC(C)C)C(=O)N2C[C@H](O)C[C@H]2C(=O)N(C)[C@@H](CC(C)C)C(=O)N[C@@H](CC(=O)O)C(=O)N[C@@H](CCCNC(=N)N)C(=O)N[C@H](C(N)=O)[C@@H](C)CC)CCNCC1 [JAL-1338, Occ-ala-Phe-Apc-Leu-Hyp-Nml-Asp-Arg-Ile-NH2] (HELM PEPTIDE1{[CCCCCCCC(=O)[*:2]].[dA].F.[O=C(C1(N[*:1])CCNCC1)[*:2]].L.[Hyp].[meL].D.R.I.[am]}$$$$V2.0)
12 | < 1000 | CCCCCCCC(=O)N1CCC[C@H](C(=O)N[C@@H](Cc2ccccc2)C(=O)N[C@H](CCCCN)C(=O)N[C@@H](CC(C)C)C(=O)N2C[C@H](O)C[C@H]2C(=O)N(C)[C@@H](CC(C)C)C(=O)N[C@@H](CC(=O)O)C(=O)N[C@@H](CCCNC(=N)N)C(=O)N[C@H](C(N)=O)[C@@H](C)CC)C1 [JAL-1254, Occ-Sni-Phe-lys-Leu-Hyp-Nml-Asp-Arg-Ile-NH2] (HELM PEPTIDE1{[CCCCCCCC(=O)[*:2]].[O=C([C@H]1CCCN([*:1])C1)[*:2]].F.[dK].L.[Hyp].[meL].D.R.I.[am]}$$$$V2.0)
13 | < 1000 | CCCCCCCC(=O)N[C@H](C)C(=O)N[C@@H](Cc1ccccc1)C(=O)N[C@H](CCCNC(=N)N)C(=O)N[C@@H](CC(C)C)C(=O)N1C[C@H](O)C[C@H]1C(=O)N(C)C(CC(C)(C)C)C(=O)N[C@@H](CC(=O)O)C(=O)N[C@@H](CCCNC(=N)N)C(=O)N[C@H](C(N)=O)[C@@H](C)CC (stereo partly drawn) [JAL-1284, Occ-ala-Phe-arg-Leu-Hyp-(SH-158)-Asp-Arg-Ile-NH2] (HELM PEPTIDE1{[CCCCCCCC(=O)[*:2]].[dA].F.[dR].L.[Hyp].[CN(C(CC(C)(C)C)C(=O)[*:2])[*:1]].D.R.I.[am]}$$$$V2.0)

— patent US9822147B2, “Methods of treating ophthalmic diseases using NPR-B agonists” (priority 2009, dated 2017)
